Patent US11958861B2, “Spirocyclic lactams as JAK2 V617F inhibitors” (Incyte Corporation, priority 2021, dated 2024)
Structures can show the parent of a compound that is named as a salt.

Tests used:
[1] = target: T1, pseudo-kinase domain (JH2, amino-acids 536-812) of human V617F mutant JAK2 (Homo sapiens, UniProt O60674, F794H/V617F/W659A/W777A); assay: JAK2 LanthaScreen JH2-V617F Binding Assay; conditions: 1 hour at 25° C.
T1 construct: pseudo-kinase domain (JH2, amino-acids 536-812 with 3 surface mutations W659A, W777A, F794H); purchased BPS Bioscience 79498; host or cells: baculovirus expression system
Outline: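 Binding was measured as TR-FRET displacement of 50 nM tracer from 0.26 nM biotinylated His-Avi protein, incubated one hour at 25° C; IC50 from a four-parameter fit.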

[2] = target: T2, pseudo-kinase domain (JH2, amino-acids 536-812) of human Wild Type JAK2 (Homo sapiens, UniProt O60674, F794H/W659A/W777A); assay: JAK2 LanthaScreen JH2-WT Binding Assay; conditions: 1 hour at 25° C.
T2 construct: pseudo-kinase domain (JH2, amino-acids 536-812 with 3 surface mutations W659A, W777A, F794H); purchased BPS Bioscience 79463; host or cells: baculovirus expression system
Outline: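 Binding was measured by TR-FRET between streptavidin-Tb (0.25 nM) on biotinylated JH2 (0.145 nM) and 50 nM fluorescent tracer, with compound dose series, 1 h at 25° C; IC50 fitted.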

[3] = target: T3, catalytic domain (JH1, amino acids 826-1132) of human JAK2 (Homo sapiens, UniProt O60674); assay: JAK2 LanthaScreen JH1 Binding Assay; conditions: 2 hours at 25° C.
T3 construct: catalytic domain (JH1, amino acids 826-1132) of human JAK2; purchased Carna Biosciences 08-445-20N; host or cells: baculovirus expression system
Outline: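 Reaction held 1.5 nM biotinylated FLAG-JAK2 JH1, 50 nM tracer and 0.5 nM streptavidin-Tb in pH 7.5 Tris buffer; 2 mM ATP defined nonspecific binding.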

[4] = target: T4, catalytic domain (JH1, amino acids 808-1132) of human JAK2 (Homo sapiens, UniProt O60674); assay: JAK2 HTRF Enzyme Activity Assay; assay type: biochemical; conditions: ATP 30 μM, read-out: ENZ 30UMATP
T4 construct: catalytic domain (JH1, amino acids 808-1132) of human JAK2; His (N); purchased BPS Bioscience 40450; host or cells: baculovirus expression system
Outline: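 IC50 values come from a four-parameter fit of HTRF signal (Eu-PY20 antibody/streptavidin-APC, EDTA-quenched). Reaction: 0.015 nM N-His JAK2 catalytic domain (baculovirus), 500 nM biotin-peptide, 30 μM or 1 mM ATP, Tris pH 7.5 buffer, 60 min, 25° C.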

T2 sequence (O60674 536-812 W659A/W777A/F794H): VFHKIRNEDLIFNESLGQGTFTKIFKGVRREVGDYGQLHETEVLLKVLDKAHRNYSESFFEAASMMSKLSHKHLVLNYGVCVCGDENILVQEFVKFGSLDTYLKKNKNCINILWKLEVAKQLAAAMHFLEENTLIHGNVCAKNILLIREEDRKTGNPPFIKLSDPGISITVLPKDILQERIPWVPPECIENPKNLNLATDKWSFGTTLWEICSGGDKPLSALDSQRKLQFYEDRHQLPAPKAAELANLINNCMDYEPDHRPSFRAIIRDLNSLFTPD
T1 sequence (O60674 536-812 V617F/W659A/W777A/F794H): as the sequence (O60674 536-812 W659A/W777A/F794H) above, with V82F counted along it
T3 sequence (O60674 826-1132): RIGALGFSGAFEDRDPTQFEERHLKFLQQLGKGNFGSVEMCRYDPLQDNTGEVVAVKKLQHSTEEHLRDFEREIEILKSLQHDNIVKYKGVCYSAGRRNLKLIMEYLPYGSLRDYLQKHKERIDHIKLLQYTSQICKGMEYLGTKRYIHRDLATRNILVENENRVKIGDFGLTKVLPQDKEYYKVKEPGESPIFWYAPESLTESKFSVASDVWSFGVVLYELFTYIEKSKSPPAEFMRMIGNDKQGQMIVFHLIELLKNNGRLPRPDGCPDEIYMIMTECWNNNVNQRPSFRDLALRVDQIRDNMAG
T4 sequence (O60674 808-1132): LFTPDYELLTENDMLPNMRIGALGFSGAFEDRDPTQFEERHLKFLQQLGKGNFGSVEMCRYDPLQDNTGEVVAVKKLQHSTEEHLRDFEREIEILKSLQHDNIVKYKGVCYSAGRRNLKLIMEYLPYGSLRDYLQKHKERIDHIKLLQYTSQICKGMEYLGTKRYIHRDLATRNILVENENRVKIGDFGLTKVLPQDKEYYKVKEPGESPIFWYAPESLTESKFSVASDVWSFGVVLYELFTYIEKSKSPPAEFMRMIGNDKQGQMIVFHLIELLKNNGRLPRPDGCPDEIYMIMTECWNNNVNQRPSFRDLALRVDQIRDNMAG

`CC(=O)NC12CC(N3CCC4(CC3)C(=O)N(C)c3cnc5[nH]c(-c6cnn(C)c6)c(-c6ccc7c(cnn7C)c6)c5c34)(C1)C2` [Example 82, N-(3-(6-Methyl-1-(1-methyl-1H-indazol-5-yl)-2-(1-methyl-1H-pyrazol-4-yl)-7-oxo-6,7-dihydro-3H-spiro[dipyrrolo[2,3-b:3′,2′-d]pyridine-8,4′-piperidin]-1′-yl)bicyclo[1.1.1]pentan-1-yl)acetamide] gave an IC50 [1] of no more than 100 nM, an IC50 [2] of no more than 100 nM and an IC50 [3] of 100 to 500 nM. For the same molecule, the IC50 [4] was 100 to 500 nM.

`COC(=O)N1CC2(N3CCC4(CC3)C(=O)N(C)c3cnc5[nH]c(-c6cnn(C)c6)c(-c6ccc7c(cnn7C)c6)c5c34)CC1C2` [Example 83, Methyl 4-(6-methyl-1-(1-methyl-1H-indazol-5-yl)-2-(1-methyl-1H-pyrazol-4-yl)-7-oxo-6,7-dihydro-3H-spiro[dipyrrolo[2,3-b:3′,2′-d]pyridine-8,4′-piperidin]-1′-yl)-2-azabicyclo[2.1.1]hexane-2-carboxylate] gave an IC50 [1] of no more than 100 nM, an IC50 [2] of no more than 100 nM and an IC50 [3] of 1250 to 2500 nM. It also gave an IC50 [4] of 1250 to 2500 nM.

For `CN1C(=O)C2(CCN(C(C)(C)C3CNC3)CC2)c2c1cnc1[nH]c(-c3cnn(C)c3)c(-c3ccc4c(cnn4C)c3)c21` [Example 84, 1′-(2-(Azetidin-3-yl)propan-2-yl)-6-methyl-1-(1-methyl-1H-indazol-5-yl)-2-(1-methyl-1H-pyrazol-4-yl)-3,6-dihydro-7H-spiro[dipyrrolo[2,3-b:3′,2′-d]pyridine-8,4′-piperidin]-7-one], the IC50 [1] was no more than 100 nM, the IC50 [2] was no more than 100 nM and the IC50 [3] was 500 to 1250 nM. It also gave an IC50 [4] of 100 to 500 nM.

In the case of `O=C(O)C(F)(F)F.[2H]C([2H])([2H])n1ncc2cc(-c3c(-c4ccc(CN5CCOCC5)cc4)[nH]c4ncc5c(c34)C3(CC4(CN(S(=O)(=O)CC)C4)C3)C(=O)N5C)ccc21` [Example 85, 1-(Ethylsulfonyl)-6″-methyl-1″-(1-(methyl-d3)-1H-indazol-5-yl)-2″-(4-(morpholinomethyl)phenyl)-3″,6″-dihydro-7″H-dispiro[azetidine-3,1′-cyclobutane-3′,8″-dipyrrolo[2,3-b:3′,2′-d]pyridin]-7″-one, trifluoroacetate salt], the IC50 [1] is reported as no more than 100 nM, the IC50 [2] is reported as no more than 100 nM and the IC50 [3] is reported as 1250 to 2500 nM. For the same molecule, the IC50 [4] was 1250 to 2500 nM.

With `CCS(=O)(=O)N1CC2(C1)CC1(C2)C(=O)N(C)c2cnc3[nH]c(-c4cnn(C)c4)c(-c4ccc5c(cnn5C)c4)c3c21` [Example 86, l-(Ethylsulfonyl)-6″-methyl-1″-(1-methyl-1H-indazol-5-yl)-2″-(1-methyl-1H-pyrazol-4-yl)-3″,6″-dihydro-7″H-dispiro[azetidine-3,1′-cyclobutane-3′,8″-dipyrrolo[2,3-b:3′,2′-d]pyridin]-7″-one, trifluoroacetate salt] the IC50 [1] was no more than 100 nM, the IC50 [2] was no more than 100 nM and the IC50 [3] was 500 to 1250 nM. For the same molecule, the IC50 [4] was 500 to 1250 nM.

For `CCS(=O)(=O)N1CC2(C1)CC1(C2)C(=O)N(C)c2cnc3[nH]c(-c4cnn(CC5CC5)c4)c(-c4ccc5c(cnn5C)c4)c3c21` [Example 87, 2″-(1-(Cyclopropylmethyl)-1H-pyrazol-4-yl)-1-(ethylsulfonyl)-6″-methyl-1″-(1-methyl-1H-indazol-5-yl)-3″,6″-dihydro-7″H-dispiro[azetidine-3,1′-cyclobutane-3′,8″-dipyrrolo[2,3-b:3′,2′-d]pyridin]-7″-one, trifluoroacetate salt], the IC50 [1] was no more than 100 nM, the IC50 [2] was no more than 100 nM and the IC50 [3] was 1250 to 2500 nM. It also gave an IC50 [4] of 1250 to 2500 nM.

`CCS(=O)(=O)N1CC2(C1)CC1(C2)C(=O)N(C)c2cnc3[nH]c(-c4cnn(CCOC)c4)c(-c4ccc5c(cnn5C)c4)c3c21` [Example 88, 1-(Ethylsulfonyl)-2″-(1-(2-methoxyethyl)-1H-pyrazol-4-yl)-6″-methyl-1″-(1-methyl-1H-indazol-5-yl)-3″,6″-dihydro-7″H-dispiro[azetidine-3,1′-cyclobutane-3′,8″-dipyrrolo[2,3-b:3′,2′-d]pyridin]-7″-one, trifluoroacetate salt] was tested, and the IC50 [1] was no more than 100 nM, the IC50 [2] was no more than 100 nM and the IC50 [3] was 1250 to 2500 nM. For the same molecule, the IC50 [4] was 1250 to 2500 nM.

Molecule `O=C(O)C(F)(F)F.[2H]C([2H])([2H])N1C(=O)C2(CC3(CN(S(=O)(=O)CC)C3)C2)c2c1cnc1[nH]c(-c3cnn(C(C)C)c3)c(-c3ccc4c(cnn4C)c3)c21` [Example 89, 1-(Ethylsulfonyl)-2″-(1-isopropyl-1H-pyrazol-4-yl)-6″-(methyl-d3)-1″-(1-methyl-1H-indazol-5-yl)-3″,6″-dihydro-7″H-dispiro[azetidine-3,1′-cyclobutane-3′,8″-dipyrrolo[2,3-b:3′,2′-d]pyridin]-7″-one, trifluoroacetate salt] has an IC50 [1] of no more than 100 nM, an IC50 [2] of no more than 100 nM and an IC50 [3] of 1250 to 2500 nM. It also gave an IC50 [4] of 1250 to 2500 nM.

Molecule `CCS(=O)(=O)N1CC2(C1)CC1(C2)C(=O)N(C)c2cnc3[nH]c(-c4cnn(C5CCCC5)c4)c(-c4ccc5c(cnn5C)c4)c3c21` [Example 90, 2″-(1-Cyclopentyl-1H-pyrazol-4-yl)-1-(ethylsulfonyl)-6″-methyl-1″-(1-methyl-1H-indazol-5-yl)-3″,6″-dihydro-7″H-dispiro[azetidine-3,1′-cyclobutane-3′,8″-dipyrrolo[2,3-b:3′,2′-d]pyridin]-7″-one, trifluoroacetate salt] has an IC50 [1] of no more than 100 nM, an IC50 [2] of no more than 100 nM and an IC50 [3] of 1250 to 2500 nM. For the same molecule, the IC50 [4] was 1250 to 2500 nM.

`CCS(=O)(=O)N1CC2(C1)CC1(C2)C(=O)N(C)c2cnc3[nH]c(-c4ccc(CN5CCC(C#N)CC5)cc4)c(-c4ccc5c(cnn5C)c4)c3c21` [Example 91, l-(4-(1-(Ethylsulfonyl)-6″-methyl-1″-(1-(methy-d3)-1H-indazol-5-yl)-7″-oxo-6″,7″-dihydro-3″H-dispiro[azetidine-3,1′-cyclobutane-3′,8″-dipyrrolo[2,3-b:3′,2′-d]pyridin]-2″-yl)benzyl)piperidine-4-carbonitrile, trifluoroacetate salt] was tested, and the IC50 [1] was no more than 100 nM, the IC50 [2] was no more than 100 nM and the IC50 [3] was 1250 to 2500 nM. For the same molecule, the IC50 [4] was 1250 to 2500 nM.

Work on `O=C(O)C(F)(F)F.[2H]C([2H])([2H])N1C(=O)C2(CC3(CN(S(=O)(=O)CC)C3)C2)c2c1cnc1[nH]c(-c3ccc(CN4CCOCC4)cc3)c(-c3ccc(OC)cc3)c21` [Example 92, 1-(Ethylsulfonyl)-1″-(4-methoxyphenyl)-6″-(methyl-d3)-2″-(4-(morpholinomethyl)phenyl)-3″,6″-dihydro-7″H-dispiro[azetidine-3,1′-cyclobutane-3′,8″-dipyrrolo[2,3-b:3′,2′-d]pyridin]-7″-one, trifluoroacetate salt] yielded an IC50 [1] of no more than 100 nM, an IC50 [2] of no more than 100 nM and an IC50 [3] greater than 2500 nM. The IC50 [4] was greater than 2500 nM.

`CCS(=O)(=O)N1CC2(C1)CC1(C2)C(=O)N(C)c2cnc3[nH]c(-c4cnn(CC(F)F)c4)c(-c4ccc5c(cnn5C)c4)c3c21` [Example 93, 2″-(1-(2,2-Difluoroethyl)-1H-pyrazol-4-yl)-1-(ethylsulfonyl)-6″-methyl-1″-(1-methyl-1H-indazol-5-yl)-3″,6″-dihydro-7″-dispiro[azetidine-3,1′-cyclobutane-3′,8″-dipyrrolo[2,3-b:3′,2′-d]pyridin]-7″-one, trifluoroacetate salt] was tested, and the IC50 [1] was no more than 100 nM, the IC50 [2] was no more than 100 nM and the IC50 [3] was 1250 to 2500 nM. It also gave an IC50 [4] of 1250 to 2500 nM.
